In patent US7939530B2, “Treatment of lymphoma using 10-propargyl-10-deazaaminopterin and gemcitabine” (Sloan-Kettering Institute for Cancer Research, priority 2004, dated 2011):

Assays:
SKI-DLCL-1 cells = assay: Induction of apoptosis (YO-PRO-1/propidium iodide flow cytometry); format: cell-based, human; details: all drugs 1 nM, total exposure 72 hours, sequential: first drug 24 hours prior to second
Protocol: Ara-C, PDX and Gem in combined and scheduled exposures. In each case, the total exposure time was 72 hours. In sequential treatments, the first drug was administered 24 hours prior to the second drug.
To assess apoptosis occurring as a result of combination therapies, apoptosis was assessed using two well standardized techniques. In the first (YO-PRO), cell membrane permeability was determined by measuring fluorescence of treated and control cells. 2×10^7 SKI-DLBCL cells were treated with either MTX, Ara-C, Gem or PDX alone or combinations of drug given together or scheduled. All drugs were assayed at equimolar concentrations (i.e. 1 nM). The incubation conditions were modeled after the in vitro cytotoxicity experiments. Single agent drugs or combinations of all drugs studied without schedule considerations were incubated for 72 hours, while drugs that were studied in some schedule were introduced in a 24+48 incubation scheme (i.e. drug B added 24 hours following drug A, then incubated for an additional 48 hours for a total incubation time of 72 hours). Cells were then collected, washed twice and re-suspended at a concentration of 1×10^6/mL in DPBS. Membrane permeability was detected via the differential cellular permeability of the fluorescent dyes YO-PRO®-1 and propidium iodide by flow cytometry, as per the manufacturer's guidelines (Vybrant apoptosis kit #4, Molecular Probes, Eugene, Oreg.). In addition to monitoring apoptosis, cell cycle kinetic analyses were also performed on all treated cells based the propidium iodide binding. Apoptotic cells were noted to be permeable to the green fluorescent dye YO-PRO®-1 (em 530, FL-1), and impermeable to the red fluorescent dye propidium iodide (em 575, FL-3). Typically, […] cells allow the entrance of both dyes, whereas living cells are impermeable to both dyes.

[1] = tested on: subcutaneous tumors of SKI; assay: Preliminary combination xenograft experiment; format: in vivo, irradiated NOD-SCID mice; details: 60 mg/kg; regrowth by day 44 after initial response
Protocol: Given the experience that SKI-DLCL-1 is the most PDX resistant line in the panel, it was selected for these in vivo synergy experiments. […] All animals were treated with the maximum tolerated dose (MTD) of each drug, save the combination studies.

[2] = tested on: SKI-DLCL-1 lymphoma cells; assay: Trypan Blue Exclusion cytotoxicity assay of single agents and combinations; format: cell-based, human; details: MTX 10 nM, PDX 1 nM, Ara-C 40 nM, Gem 10 nM, control = 1
Description: As set forth in greater detail in the examples herein, combination therapy using PDX and gemcitabine has been tested in vitro and in in vivo model systems for efficacy against lymphoma. Table 1 sets forth data obtained in a cytotoxicity assay (Example 2) using SKI-DLCL-1 lymphoma cells. SKI-DLCL-1 is a diffuse large b cell lymphoma (DLBCL) cell line that is particularly resistant to PDX.
In Table 1, the additive effect is in each case the % of control for the single agents multiplied together. The expected additive effect for PDX+Gem is better than for MTX and ara-C, because the agents are individually better. What is observed for both MTX/AraC combinations and PDX/Gem combinations is that the actual result is better than the predicted additive result. The extent of this synergism is quantified in Table 1 as (actual-additive)/additive so that the amount of reduction that occurs through the use of the combination is expressed as a percentage of the expected additive benefit.
To evaluate cytotoxicity of combination of PDX and GEM, a Trypan Blue Exclusion Assay was performed by aliquoting 5×10^5 SKI-DLBCL cells into each well of a 24 well plate with a final volume of 1 milliliter. Each drug was added in duplicate to the plate wells as follows: alone (MTX 10 nM, PDX 1 nM, Ara-C 40 nM, or Gem 10 nM), PDX+Gem or MTX+Ara-C for 48 h (hours). For the scheduled administration of drug, PDX or MTX alone were dispensed in additional duplicate wells. After 24 hours Gem and Ara-C were added to these wells, respectively, and incubated for 48 hours. At the end of incubation, 20 l of each cell culture was added to 20 l of trypan blue, after which […] was added to a hemocytometer (Hausser Scientific, Horsham, Pa.), where viable cells were counted based upon the presence (dead cells) or exclusion (live cells) of dye.

[3] = tested on: caspase 3 in SKI-DLCL-1 cells; assay: Caspase 3 activation (EnzChek Caspase-3 Assay Kit #2, Z-DEVD-R110 cleavage); format: cell-based, human
Protocol: To further evaluate the activity of PDX and Gem combinations, Caspase activity was tested by EnzChek® Caspase-3 Assay Kit #2 (Molecular Probes) based upon the fluorometric detection of caspase-dependent Z-DEVD-R110 cleavage (rhodamine 110 bis-[N-CBZ-L-aspartyl-L-glutamyl-L-valyl-L-aspartic acid amide], a non-fluorescent bisamide), which, via a two step process, first yields the monoamide product (weakly fluorescent) and then the fluorescent product R110 (rhodamine 110, strongly fluorescent). Detection was performed on a Fluoroskan Ascent FL fluorescent plate reader (Thermo Lab Systems, Helsinki, Finland) according to the manufacturer's guidelines.

[4] = tested on: SKI-DLCL-1 (Diffuse large B Cell) cell line; assay: Growth inhibition in vitro (XTT or Alamar blue); format: cell-based, human
Protocol: A PDX preparation prepared in accordance with Example 1 and an MTX preparation were tested for cytotoxicity against a panel of five human lymphoma cell lines. Experiments were performed as described previously. (Sirotnak et al., Cancer Chemother. […] Colorimetric dye (XTT or Alamar blue) was added for an addition period of time (XTT dye, 6 hours, Alamar blue, 24 hours). Each plate was then read on an automated plate reader at 590 nm. The percentage of inhibition was calculated as growth of cells exposed to drug divided by growth of controls (cells incubated with media only). […] Experiments were repeated as lest three times.

[5] = tested on: Hs445 (Hodgkin's disease) cell line; assay: Growth inhibition in vitro (XTT or Alamar blue); format: cell-based, human; details: 5 day continuous drug exposure
Protocol: (§1) A PDX preparation prepared in accordance with Example 1 and an MTX preparation were tested for cytotoxicity against a panel of five human lymphoma cell lines. Experiments were performed as described previously. (Sirotnak et al., Cancer Chemother. Pharmacol. 12: 18-25 (1984). In brief, 2.5 to 5×10^3 cells were plated per well in 96-well flat bottom plates. Drug was added in a 0.9% NaCl solution (pH 7.0) over a range of concentrations, and cells were continuously exposed to drug for 5 days. Colorimetric dye (XTT or Alamar blue) was added for an addition period of time (XTT dye, 6 hours, Alamar blue, 24 hours). Each plate was then read on an automated plate reader at 590 nm. The percentage of inhibition was calculated as growth of cells exposed to drug divided by growth of controls (cells incubated with media only). IC50 values were determined as the drug concentrations at which cell growth was inhibited 50% as compared to controls. Experiments were repeated as lest three times. Experiments were also conducted with continuous drug exposures lasting for 3 and 4 days with results similar to the 5 day results.

[6] = tested on: Raji (Burkitt's) cell line; assay: Growth inhibition in vitro (XTT or Alamar blue); format: cell-based, human; details: 5 day continuous drug exposure
Protocol: as §1

[7] = tested on: HT (Diffuse large B cell) cell line; assay: Growth inhibition in vitro (XTT or Alamar blue); format: cell-based, human; details: 5 day continuous drug exposure
Protocol: as §1

[8] = tested on: RL (Transformed follicular) cell line; assay: Growth inhibition in vitro (XTT or Alamar blue); format: cell-based, human; details: 5 day continuous drug exposure
Protocol: as §1

[9] = cited from earlier work

## C#CCC(Cc1cnc2nc(N)nc(N)c2n1)c1ccc(C(=O)N[C@@H](CCC(=O)O)C(=O)O)cc1 (stereo partly shown) [PDX, 10-Propargyl-10-deazaminopterin]
SKI-DLCL-1 cells
  % change in apoptosis: 28.21%
[1]
  tumor volume as % of initial tumor volume: 739%
[2]
  fraction of control: 0.84
[3]; 1 nM, control 134.3
  Fluorescence at 485ex/527em: 265.5
[3]; fluorescence at 485ex/527em
  Difference from control: 131.2
[4]; SKI-DLCL-1, 5 day continuous drug exposure
  IC50: 5.1 ± 0.1 nM
[4]; roughly, fold greater
  EC50 in SKI-DLCL-1 relative to other B-cell lymphoma cell lines: 2 to 3 fold
[5]
  IC50: 1.6 ± 0.8 nM
[6]
  IC50: 2 ± 0.3 nM
[7]
  IC50: 2 ± 0.4 nM
[8]
  IC50: 23 ± 2 nM
[9]; intraperitoneal, twice weekly for two weeks
  maximum tolerated dose (MTD): 60 mg/kg
[9]; nude mice
  toxic deaths at the MTD: no toxic deaths
